According to patent US11780832B2, “Lactivicin compounds, their preparation and use as antibacterial agents” (priority 2021, dated 2023):
Values after ≈ are worked out from the molar mass of the structure shown.

How the values were obtained:
Type in all cases: cell-based
[1] = system: Klebsiella oxytoca KPC-2, TEM-1; experiment: MIC, CLSI broth microdilution
How it was run: (§1)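 Inhibitory concentrations were measured in broth following CLSI microdilution rules. Test organisms, each with known resistance determinants, were inoculated at a final 5×10^5 CFU/mL into wells holding compound at final concentrations from 16 down to 0.0125 μg/mL.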

[2] = system: Escherichia coli CTX-M-15; experiment: MIC, CLSI broth microdilution; details: CTXM15
How it was run: as §1

[3] = system: Pseudomonas aeruginosa ATCC 27853; experiment: MIC, CLSI broth microdilution; details: ATCC27853
How it was run: as §1

[4] = system: Acinetobacter baumannii ATCC 19606; experiment: MIC, CLSI broth microdilution; details: ATCC19606
How it was run: as §1

[5] = system: Serratia marcescens AmpC overexpressed; experiment: MIC, CLSI broth microdilution
How it was run: (§2)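 MIC values come from CLSI broth microdilution against clinical and ATCC isolates whose resistance genes had been characterized. Compound dilutions were two-fold, with final concentrations between 16 and 0.0125 μg/mL.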

[6] = system: Klebsiella pneumoniae OXA-48, SHV-1; experiment: MIC, CLSI broth microdilution
How it was run: as §2

[7] = system: Escherichia coli ATCC 25922; experiment: MIC, CLSI broth microdilution; details: ATCC25922
How it was run: as §1

[8] = system: Enterobacter cloacae species complex NDM-1; experiment: MIC, CLSI broth microdilution
How it was run: as §1

Escherichia coli CMY-2 = experiment: MIC, CLSI broth microdilution; details: CMY2
How it was run: as §1

[9] = system: Pseudomonas aeruginosa AmpC overexpressed; experiment: MIC, CLSI broth microdilution
How it was run: as §2

[10] = system: Proteus mirabilis CMY-DHA; experiment: Synergistic activity: MIC in the presence of Avibactam; details: row r36, in the presence of Avibactam @ 4 μg/mL
Method: (§3) Isolates were sub-cultured onto appropriate media and stocked in skim milk at −80° C. Following two subcultures from frozen stock, in vitro antimicrobial susceptibility testing was performed using the Clinical and Laboratory Standards Institute (CLSI) broth microdilution method. Briefly, fresh cultures were suspended in culture media to give a final stock inoculum size of 5×10^7 colony forming units per milliliter of broth (CFU/mL). Test compounds were prepared at a stock solution concentration equal to 128 μg/mL, then diluted to give a final an initial working concentration of 32 μg/mL. 100 μL of the stock solutions were added to the first wells in a 96-well plate and were then diluted using a 2-fold dilution method to give a range of 32-0.025 μg/mL. 100 μL of the bacterial suspensions were then added to the 96-well plates to give a final working inoculum size of 5×10^5 CFU/mL. The final compound concentration range was 16-0.0125 μg/mL. […] MICs for comparator agents were determined using custom-designed, in-house prepared 96-well broth microdilution panels.
(§4) The same method used to test the activity of the claimed compounds was used to determine their synergistic activity when combined with a β-lactamase inhibitor except that either a fixed concentration or fixed ratio of a β-lactamase inhibitor was added to the 96-well plates prior to adding the bacteria cultures. Synergistic activity was defined as the reduction of MIC of a given compound when tested using the β-lactamase inhibitor versus testing the compound in the absence of a β-lactamase inhibitor.

[11] = system: Citrobacter freundii species complex Elevated AmpC; experiment: as above; details: row r16, in the presence of Avibactam @ 4 μg/mL
Method: as §3, §4

[12] = system: Escherichia coli Elevated AmpC; experiment: as above
Method: as §3, §4

[13] = system: Enterobacter cloacae species complex Elevated AmpC; experiment: as above
Method: as §3, §4

Escherichia coli CMY-DHA [14] = experiment: as above
Method: as §3, §4

[15] = system: Klebsiella pneumoniae CMY-DHA; experiment: as above; details: row r32, in the presence of Avibactam @ 4 μg/mL
Method: as §3, §4

[16] = system: Citrobacter freundii species complex Elevated AmpC; experiment: MIC against Elevated AmpC producing strains, compound alone; details: row r16
Method: (§5) Gram-negative and Gram-positive bacterial strains used during the in vitro minimum inhibitory concentration (MIC) determination were obtained either from the American Type Culture Collection (ATCC) or from clinical specimens. All strains were characterized genotypically and the respective antibiotic resistance markers for each strain were identified.
as §3

[17] = system: Escherichia coli Elevated AmpC; experiment: as above
Method: as §5, §3

[18] = system: Enterobacter cloacae species complex Elevated AmpC; experiment: as above
Method: as §5, §3

[19] = system: Proteus mirabilis CMY-DHA; experiment: MIC against CMY-DHA producing strains, compound alone; details: row r36
Method: as §5, §3

Escherichia coli CMY-DHA [20] = experiment: as above
Method: as §5, §3

[21] = system: Klebsiella pneumoniae CMY-DHA; experiment: as above; details: row r32
Method: as §5, §3

Nc1nc(/C(=N/OC2(C(=O)O)CCOCC2)C(=O)N[C@H]2CON(C3(C(=O)O)C[C@H](N4C(=O)c5cc(O)c(O)cc5C4=O)C(=O)O3)C2=O)cs1 (stereo partly drawn) [Cmpd 8, 4-({(Z)-[1-(2-amino-1,3-thiazol-4-yl)-2-({(4S)-2-[(4S)-2-carboxy-4-(5,6-dihydroxy-1,3-dioxo-1,3-dihydro-2H-isoindol-2-yl)-5-oxooxolan-2-yl]-3-oxo-1,2-oxazolidin-4-yl}amino)-2-oxoethylidene]amino}oxy)oxane-4-carboxylic acid] was tested, and the MIC [1] was 0.0149 µg/mL (≈ 0.0211 µM), the MIC [2] was 2 µg/mL (≈ 2.84 µM) and the MIC [3] was 0.12 µg/mL (≈ 0.17 µM). The MIC [4] was 0.12 µg/mL (≈ 0.17 µM), the MIC [5] was 0.06 µg/mL (≈ 0.0852 µM) and the MIC [6] was 0.0149 µg/mL (≈ 0.0211 µM). The MIC [7] was 0.06 µg/mL (≈ 0.0852 µM), the MIC [8] was 0.25 µg/mL (≈ 0.355 µM) and the MIC (Escherichia coli CMY-2) was 1 µg/mL (≈ 1.42 µM). For the same compound, the MIC [9] was 0.5 µg/mL (≈ 0.71 µM), the MIC [10] was 0.5 µg/mL and the MIC [11] was 0.03 µg/mL. For the same compound, the MIC ([12]; strain of row r10, in the presence of Avibactam @ 4 μg/mL) was “<=0.008 μg/mL”, the MIC ([12]; strain of row r11, in the presence of Avibactam @ 4 μg/mL) was 0.03 µg/mL and the MIC ([12]; strain of row r12, in the presence of Avibactam @ 4 μg/mL) was 0.03 µg/mL. For the same compound, the MIC ([12]; strain of row r13, in the presence of Avibactam @ 4 μg/mL) was “<=0.008 μg/mL”, the MIC ([12]; strain of row r14, in the presence of Avibactam @ 4 μg/mL) was “<=0.008 μg/mL” and the MIC ([12]; strain of row r15, in the presence of Avibactam @ 4 μg/mL) was 0.06 µg/mL. The MIC ([13]; in the presence of Avibactam @ 4 μg/mL) was 0.06 µg/mL, the MIC ([13]; strain of row r7, in the presence of Avibactam @ 4 μg/mL) was 0.12 µg/mL and the MIC ([13]; strain of row r20, in the presence of Avibactam @ 4 μg/mL) was “<=0.008 μg/mL”. The MIC (Escherichia coli CMY-DHA [14]; strain of row r26, in the presence of Avibactam @ 4 μg/mL) was 0.03 µg/mL, the MIC (Escherichia coli CMY-DHA [14]; strain of row r27, in the presence of Avibactam @ 4 μg/mL) was “<=0.008 μg/mL” and the MIC (Escherichia coli CMY-DHA [14]; strain of row r28, in the presence of Avibactam @ 4 μg/mL) was “<=0.008 μg/mL”. The MIC (Escherichia coli CMY-DHA [14]; strain of row r29, in the presence of Avibactam @ 4 μg/mL) was 0.06 µg/mL, the MIC (Escherichia coli CMY-DHA [14]; strain of row r30, in the presence of Avibactam @ 4 μg/mL) was “<=0.008 μg/mL” and the MIC (Escherichia coli CMY-DHA [14]; strain of row r31, in the presence of Avibactam @ 4 μg/mL) was 0.06 µg/mL. The MIC (Escherichia coli CMY-DHA [14]; strain of row r34, in the presence of Avibactam @ 4 μg/mL) was 0.015 µg/mL, the MIC (Escherichia coli CMY-DHA [14]; strain of row r35, in the presence of Avibactam @ 4 μg/mL) was “<=0.008 μg/mL” and the MIC [15] was 0.25 µg/mL. The MIC [16] was 0.25 µg/mL (≈ 0.355 µM), the MIC ([17]; strain of row r10) was 0.015 µg/mL (≈ 0.0213 µM) and the MIC ([17]; strain of row r11) was 0.12 µg/mL (≈ 0.17 µM). For the same compound, the MIC ([17]; strain of row r12) was 0.25 µg/mL (≈ 0.355 µM), the MIC ([17]; strain of row r13) was 0.03 µg/mL (≈ 0.0426 µM) and the MIC ([17]; strain of row r14) was 0.06 µg/mL (≈ 0.0852 µM). The MIC ([17]; strain of row r15) was 0.12 µg/mL (≈ 0.17 µM), the MIC [18] was 0.5 µg/mL (≈ 0.71 µM) and the MIC ([18]; strain of row r7) was 2 µg/mL (≈ 2.84 µM). It also gave an MIC ([18]; strain of row r20) of 0.12 µg/mL (≈ 0.17 µM), an MIC [19] of 4 µg/mL (≈ 5.68 µM) and an MIC (Escherichia coli CMY-DHA [20]; strain of row r26) of 1 µg/mL (≈ 1.42 µM). The MIC (Escherichia coli CMY-DHA [20]; strain of row r27) was 0.06 µg/mL (≈ 0.0852 µM), the MIC (Escherichia coli CMY-DHA [20]; strain of row r28) was 0.25 µg/mL (≈ 0.355 µM) and the MIC (Escherichia coli CMY-DHA [20]; strain of row r29) was 0.5 µg/mL (≈ 0.71 µM). The MIC (Escherichia coli CMY-DHA [20]; strain of row r30) was 0.25 µg/mL (≈ 0.355 µM), the MIC (Escherichia coli CMY-DHA [20]; strain of row r31) was 1 µg/mL (≈ 1.42 µM) and the MIC (Escherichia coli CMY-DHA [20]; strain of row r34) was 0.12 µg/mL (≈ 0.17 µM). The MIC (Escherichia coli CMY-DHA [20]; strain of row r35) was 0.25 µg/mL (≈ 0.355 µM) and the MIC [21] was 1 µg/mL (≈ 1.42 µM).
